Test results: US7772188B2, “Methods and compositions for the treatment of gastrointestinal disorders” (priority 2003, dated 2010)
Positions of bridges follow the written chain, without caps; N, C: chain ends. Residues, ends and D or L forms follow the SMILES beside them.

Tests used:
gastrointestinal transit = experiment: Murine gastrointestinal transit (GIT) assay, charcoal front; type: in vivo, mice
Description: In order to determine whether the peptides increase the rate of gastrointestinal transit, the peptides and controls were tested using a murine gastrointestinal transit (GIT) assay (Moon et al. Infection and Immunity 25:127, 1979). In this assay, charcoal, which can be readily visualized in the gastrointestinal tract is administered to mice after the administration of a test compound. The distance traveled by the charcoal is measured and expressed as a percentage of the total length of the […].
Mice were fasted with free access to water for 12 to 16 hours before the treatment with peptide or control buffer. The peptides were orally administered at 1 μg/kg-1 mg/kg of peptide in buffer (20 mM Tris pH 7.5) 7 minutes before being given an oral dose of 5% Activated Carbon (Aldrich 242276-250G). Control mice were administered buffer only before being given a dose of Activated Carbon. After 15 minutes, the mice were sacrificed and their intestines from the stomach to the cecum were dissected. The total length of the intestine as well as the distance traveled from the stomach to the charcoal front was measured for each animal and the results are expressed as the percent of the total length of the intestine traveled by the charcoal front. All results are reported as the average of 10 mice±standard deviation. A comparison of the distance traveled by the charcoal between the mice treated with peptide versus the mice treated with vehicle alone was performed using a Student's t test and a statistically significant difference was considered for P<0.05. P-values are calculated using a two-sided T-Test assuming unequal variances.
The identical experiment was performed to determine if SEQ ID NO:3 is effective in a chronic dosing treatment regimen. Briefly, 8 week old CD1 female mice are dosed orally once a day for 5 days with either SEQ ID NO:3 (0.06 mg/kg or 0.25 mg/kg in 20 mM Tris pH 7.5) or vehicle alone (20 mM Tris pH 7.5). On the 5th day, a GIT assay is performed identical to that above except 200 μl of a 10% charcoal solution is administered. […] The results are shown side by side with acute dosing (1 day).

[1] = Absorbability/bioavailability study in mice, serum detection by competitive ELISA; type: in vivo, CD1 mice; settings: FIG. 10a
Description: To study the pharmacokinetics of SEQ ID NO:3, absorbability studies in mice were performed by administering SEQ ID NO:3 intravaneously via tail vein injection or orally by gavage to 8-week-old CD1 mice. Serum was collected from the animals at various time points and tested for the presence of SEQ ID NO:3 using a competitive enzyme-linked immunoabsorbent assay (Oxoid, ST EIA kit, Cat#TD0700). The assay utilized monoclonal antibodies against ST peptide (antibodies are provided in the Oxoid kit) and synthetically manufactured SEQ ID NO:3.

[2] = Bioavailability study in mice, serum detection by LCMS; type: in vivo; settings: FIG. 10b
Description: A similar bioavailability study was performed in which LCMS rather than ELISA was used to detect SEQ ID NO:3. Initially, serum samples were extracted from the whole blood of exposed and control mice, then injected directly ([…]) onto an in-line solid phase extraction (SPE) column (Waters Oasis HLB […] column, 2.0×15 mm direct connect) without further processing. The sample on the SPE column was washed with a 5% methanol, 95% dH2O solution (2.1 mL/min, 1.0 minute), then loaded onto an analytical column using a valve switch that places the SPE column in an inverted flow path onto the analytical column (Waters Xterra MS C8 5 mm IS column, 2.1×20 mm). The sample was eluted from the analytical column with a reverse phase gradient (Mobile Phase A: 10 mM ammonium hydroxide in dH2O, Mobile Phase B: 10 mM ammonium hydroxide in 80% acetonitrile and 20% methanol; 20% B for the first 3 minutes then ramping to 95% B over 4 min. and holding for 2 min., all at a flow rate of 0.4 mL/min.). At 9.1 minutes, the gradient returns to the initial conditions of 20% B for 1 min. SEQ ID NO:3 eluted from the analytical column at 1.45 minutes, and was detected by triple-quadrapole mass spectrometry (MRM, 764 (+2 charge state)>182 (+1 charge state) Da; cone voltage=30V; collision=20 eV; parent resolution=2 Da at base peak; daughter resolution=2 Da at base peak). […]

PBQ-induced writhing = experiment: Phenylbenzoquinone (PBQ)-induced writhing model
[3] = CD1, mouse, serum, oral versus IV

## C[C@@H]1NC(=O)[C@@H]2CCCN2C(=O)[C@H](CC(N)=O)NC(=O)[C@@H]2CSSC[C@H](N)C(=O)N[C@H]3CSSC[C@H](NC1=O)C(=O)N[C@@H]([C@@H](C)O)C(=O)NCC(=O)N[C@H](C(=O)N[C@@H](Cc1ccc(O)cc1)C(=O)O)CSSC[C@H](NC(=O)[C@H](Cc1ccc(O)cc1)NC(=O)[C@H](CCC(=O)O)NC3=O)C(=O)N2 [SEQ ID NO:3, Cys Cys Glu Tyr Cys Cys Asn Pro Ala Cys Thr Gly Cys Tyr] (H-CCEYCCNPACTGCY-OH; disulfide 1-6, 2-10, 5-13; N-terminus and C-terminus assumed)
Gastrointestinal transit; acute, oral, mice, SEQ ID NO:4 and Zelnorm 0.1 mg/kg, FIG. 3a/3b
  gastrointestinal transit rate: increase gastrointestinal transit rate
Gastrointestinal transit; acute, oral, mice, chemically synthesized peptides, FIG. 4b
  intestinal transit rate versus Tris buffer or equivalent dose of Zelnorm: increase intestinal transit rates more than either Tris buffer alone or an equivalent dose of Zelnorm®
Gastrointestinal transit; oral once a day for 5 days, CD1 female mice, FIG. 4c
  effect in mouse gastrointestinal motility assay upon chronic dosing: effective
[1]; [3]
  bioavailability: < 2.2%
[1]; oral
  systemic absorption: minimally systemically absorbed
[2]; [3]
  bioavailability: < 0.11%
[2]; oral
  systemic absorption: minimally systemically absorbed
PBQ-induced writhing; mouse PBQ writhing, visceral pain model
  antinociceptive effect relative to indomethacin: antinociceptive effects in this visceral pain model comparable to the intermediate doses of indomethacin
PBQ-induced writhing; mouse, oral, 2.5 mg/kg dose, FIG. 8b
  writhings compared to the vehicle control: Significant reductions in writhings
